# Data: PubChem BioAssay (NCI)
#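 Interpolation was linear, between the two tested concentrations surrounding the appropriate level; five concentrations were tested over 48 hours in 96-well plates. GI50 is the concentration that inhibits growth by half. TGI is the concentration that stops growth completely.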
# Tests used:
# Test in all cases: inhibition of tumour cell growth, NCI panel, 48 h
# [1] = tested on: LOX IMVI melanoma
# [2] = tested on: SN12C renal
# [3] = tested on: KM12 colon
# [4] = tested on: LXFL 529 NSCLC
# [5] = tested on: DLD-1 colon
# [6] = tested on: NCI-H23 lung
# [7] = tested on: NCI-H226 lung
# [8] = tested on: OVCAR-8 ovarian
# [9] = tested on: SF-539 CNS
# [10] = tested on: RPMI-8226 leukemia
# [11] = tested on: OVCAR-5 ovarian
# [12] = tested on: EKVX NSCLC
# [13] = tested on: HCC-2998 colon
# [14] = tested on: SR leukemia
# [15] = tested on: HOP-62 NSCLC
# [16] = tested on: HL-60(TB) leukemia
# [17] = tested on: SW-620 colon
# [18] = tested on: IGROV1 ovarian
# [19] = tested on: CCRF-CEM leukemia
# [20] = tested on: OVCAR-3 ovarian
# [21] = tested on: CAKI-1 renal
# [22] = tested on: M14 melanoma
# [23] = tested on: RXF-631 renal
# [24] = tested on: SK-MEL-2 melanoma
# [25] = tested on: M19-MEL melanoma
# [26] = tested on: NCI-H460 lung
# [27] = tested on: ACHN renal
# [28] = tested on: OVCAR-4 ovarian
# [29] = tested on: NCI-H522 lung
# [30] = tested on: KM20L2 colon
# [31] = tested on: COLO 205 colon
# [32] = tested on: A549 NSCLC
# [33] = tested on: DMS 114 small cell lung
# [34] = tested on: SK-OV-3 ovarian
# [35] = tested on: XF 498 CNS
# [36] = tested on: HCT-15 colon
# [37] = tested on: RXF 393 renal
# [38] = tested on: MOLT-4 leukemia
# [39] = tested on: HOP-92 NSCLC
# [40] = tested on: SF-268 CNS
# [41] = tested on: K-562 leukemia
# [42] = tested on: MALME-3M melanoma
# [43] = tested on: 786-0 renal
# [44] = tested on: DMS 273 small cell lung
# [45] = tested on: SK-MEL-28 melanoma
# [46] = tested on: SK-MEL-5 melanoma
# [47] = tested on: UACC-257 melanoma
# [48] = tested on: HT29 colon
# [49] = tested on: U251 CNS
# [50] = tested on: SNB-75 CNS
# [51] = tested on: SF-295 CNS
# [52] = tested on: TK-10 renal
# [53] = tested on: HCT-116 colon
# [54] = tested on: SNB-19 CNS
# [55] = tested on: SNB-78 CNS
# [56] = tested on: UO-31 renal
# [57] = tested on: UACC-62 melanoma
# [58] = tested on: HOP-18 NSCLC
# [59] = tested on: A498 renal
smiles,measurement,setting,value
CC(C)C(NCc1c2ccccc2nc2ccccc12)C(=O)O (stereo unspecified),TGI,[1],> 100 µM
same,TGI,[2],> 100 µM
same,TGI,[3],> 100 µM
same,TGI,[4],> 100 µM
same,TGI,[5],> 100 µM
same,TGI,[6],> 100 µM
same,TGI,[7],> 100 µM
same,TGI,[8],> 100 µM
same,TGI,[9],> 100 µM
same,TGI,[10],> 100 µM
same,TGI,[11],> 100 µM
same,TGI,[12],> 100 µM
same,TGI,[13],> 100 µM
same,TGI,[14],> 100 µM
same,TGI,[15],> 100 µM
same,TGI,[16],73.8 µM
same,TGI,[17],> 100 µM
same,TGI,[18],> 100 µM
same,TGI,[19],88.3 µM
same,TGI,[20],> 100 µM
same,TGI,[21],> 100 µM
same,TGI,[22],> 100 µM
same,TGI,[23],97.3 µM
same,TGI,[24],> 100 µM
same,TGI,[25],> 100 µM
same,TGI,[26],> 100 µM
same,TGI,[27],> 100 µM
same,TGI,[28],42.8 µM
same,TGI,[29],91.2 µM
same,TGI,[30],> 100 µM
same,TGI,[31],> 100 µM
same,TGI,[32],> 100 µM
same,TGI,[33],90.1 µM
same,TGI,[34],> 100 µM
same,TGI,[35],62.4 µM
same,TGI,[36],> 100 µM
same,TGI,[37],> 100 µM
same,TGI,[38],69.1 µM
same,TGI,[39],61.9 µM
same,TGI,[40],> 100 µM
same,TGI,[41],> 100 µM
same,TGI,[42],> 100 µM
same,TGI,[43],> 100 µM
same,TGI,[44],> 100 µM
same,TGI,[45],> 100 µM
same,TGI,[46],> 100 µM
same,TGI,[47],> 100 µM
same,TGI,[48],> 100 µM
same,TGI,[49],> 100 µM
same,TGI,[50],> 100 µM
same,TGI,[51],> 100 µM
same,TGI,[52],> 100 µM
same,TGI,[53],> 100 µM
CC(C(=O)C(C)O[Si](c1ccccc1)(c1ccccc1)C(C)(C)C)=P(c1ccccc1)(c1ccccc1)c1ccccc1 (stereo unspecified),TGI,[1],11.1 µM
same,TGI,[2],13.5 µM
same,TGI,[3],12.9 µM
same,TGI,[54],14.5 µM
same,TGI,[4],11.7 µM
same,TGI,[55],13.3 µM
same,TGI,[5],14.9 µM
same,TGI,[6],15.5 µM
same,TGI,[7],10.6 µM
same,TGI,[8],14.2 µM
same,TGI,[9],13.4 µM
same,TGI,[10],6.58 µM
same,TGI,[11],24.9 µM
same,TGI,[12],29.2 µM
same,TGI,[13],12.3 µM
same,TGI,[15],9.23 µM
same,TGI,[16],4.24 µM
same,TGI,[17],15.4 µM
same,TGI,[56],17.2 µM
same,TGI,[18],13.9 µM
same,TGI,[19],15.8 µM
same,TGI,[20],9.38 µM
same,TGI,[22],14.7 µM
same,TGI,[57],14.4 µM
same,TGI,[24],7.64 µM
same,TGI,[25],11.4 µM
same,TGI,[26],13.4 µM
same,TGI,[27],14.6 µM
same,TGI,[28],13.9 µM
same,TGI,[30],8.66 µM
same,TGI,[31],3.45 µM
same,TGI,[32],13.3 µM
same,TGI,[33],6.25 µM
same,TGI,[34],6.81 µM
same,TGI,[35],8.76 µM
same,TGI,[36],18.8 µM
same,TGI,[58],9.93 µM
same,TGI,[38],13.5 µM
same,TGI,[39],4.74 µM
same,TGI,[41],12.3 µM
same,TGI,[42],12 µM
same,TGI,[43],15.4 µM
same,TGI,[46],8.12 µM
same,TGI,[47],13.5 µM
same,TGI,[59],16.1 µM
same,TGI,[48],11.5 µM
same,TGI,[49],14.1 µM
same,TGI,[50],8.11 µM
same,TGI,[51],10.3 µM
same,TGI,[52],16.9 µM
same,TGI,[53],10.6 µM
CC(C)=CCCC1(C)C=Cc2c(ccc3c2[nH]c2cc(O)c(C)cc23)O1 (stereo unspecified),GI50,[1],4.53 µM
same,TGI,[1],8.19 µM
same,GI50,[2],4.63 µM
same,TGI,[2],8.24 µM
same,GI50,[3],4.74 µM
same,TGI,[3],8.77 µM
same,GI50,[54],> 25 µM
same,TGI,[54],> 25 µM
same,GI50,[4],5.15 µM
same,TGI,[4],10.9 µM
same,TGI,[55],> 25 µM
same,GI50,[5],8.89 µM
same,TGI,[5],22.9 µM
same,GI50,[7],7.02 µM
same,TGI,[7],14.6 µM
same,TGI,[8],7.49 µM
same,GI50,[9],4.59 µM
same,TGI,[9],9.78 µM
same,TGI,[10],18.9 µM
same,TGI,[11],> 25 µM
same,GI50,[13],4.63 µM
same,TGI,[13],8.86 µM
same,GI50,[14],5.55 µM
same,TGI,[14],14.7 µM
same,GI50,[15],4.74 µM
same,TGI,[15],8.71 µM
same,GI50,[16],9.48 µM
same,TGI,[16],> 25 µM
same,GI50,[17],4.68 µM
same,TGI,[17],9.49 µM
same,TGI,[56],> 2.5 µM
same,TGI,[18],> 2.5 µM
same,GI50,[19],4.97 µM
same,TGI,[19],15.2 µM
same,TGI,[20],9.07 µM
same,GI50,[22],3.92 µM
same,TGI,[22],7.44 µM
same,GI50,[57],9.4 µM
same,TGI,[57],> 25 µM
same,GI50,[24],6.47 µM
same,TGI,[24],> 25 µM
same,GI50,[25],6.99 µM
same,TGI,[25],16.8 µM
same,GI50,[26],4.73 µM
same,TGI,[26],9.7 µM
same,GI50,[27],6.83 µM
same,TGI,[27],20.2 µM
same,TGI,[28],> 25 µM
same,GI50,[29],3.87 µM
same,TGI,[29],7.2 µM
same,GI50,[30],5.22 µM
same,TGI,[30],10.4 µM
same,TGI,[31],> 2.5 µM
same,GI50,[32],6.59 µM
same,TGI,[32],17.5 µM
same,TGI,[33],19.8 µM
same,TGI,[34],> 2.5 µM
same,TGI,[35],> 2.5 µM
same,GI50,[36],4.96 µM
same,TGI,[36],10.8 µM
same,GI50,[37],5.27 µM
same,TGI,[37],10.1 µM
same,GI50,[38],4.16 µM
same,TGI,[38],11.2 µM
same,GI50,[39],4.22 µM
same,TGI,[39],10.2 µM
same,GI50,[40],5.06 µM
same,TGI,[40],10.2 µM
same,GI50,[41],5.64 µM
same,TGI,[41],15.6 µM
same,GI50,[42],5.2 µM
same,TGI,[42],11 µM
same,GI50,[43],4.27 µM
same,TGI,[43],7.87 µM
same,GI50,[44],4.96 µM
same,TGI,[44],9.81 µM
same,TGI,[45],> 2.5 µM
same,GI50,[46],4.85 µM
same,TGI,[46],9.31 µM
same,GI50,[48],4.9 µM
same,TGI,[48],10.5 µM
same,GI50,[49],4.53 µM
same,TGI,[49],8.03 µM
same,GI50,[52],16.7 µM
same,TGI,[52],> 25 µM
same,GI50,[53],8.79 µM
same,TGI,[53],> 25 µM
